Data from article PMC5834492, “Antimycobacterial drug discovery using Mycobacteria-infected amoebae identifies anti-infectives and new molecular targets” (Scientific Reports, 2018).
pIC50: −log10 of the molar value.

tested on: M. marinum GFP; assay type: cell-based, Mycobacterium marinum; details: 10 µM; antibiotic assay

SMILES	M. marinum GFP normalised growth, control=1.00, mean
O=C(NC(Cc1ccccc1)C(=O)Nc1ccccc1N1CCOCC1)c1cccs1 (stereo not shown) [GSK1055950A]	-0.01
Cc1nnc(NCc2cccc(Cl)c2)c2ccccc12 [GSK1302651A]	0.56
Cc1ccc(C(=O)Nc2nc(-c3ccccn3)cs2)s1 [GSK1372568A]	0.69
CCn1c(=O)c(=O)[nH]c2cc(C(=O)Nc3ccccc3Nc3ccc(OC)cc3)ccc21 [GSK1385423A]	0.98
O=C(c1cc2c(s1)CCC2)N1CCN(Cc2ccc3c(c2)OCO3)CC1 [GSK1731114A]	0.30
O=C(C=Cc1cccs1)N1CCN(Cc2ccc(Br)s2)CC1 [GSK1744926A]	0.13
CN1CCN(c2ccc(C(F)(F)F)cc2NC(=O)c2ccccn2)CC1 [GSK1750922A]	0.91

tested on: Mtb H37Rv in THP-1; set-up: method as in Sorrentino et al, 2015; details: Mtb H37Rv-infected THP1 cells; ref Sorrentino et al, 2015; cited from earlier work

SMILES	Intracelullar MIC90 in THP-1
O=C(NC(Cc1ccccc1)C(=O)Nc1ccccc1N1CCOCC1)c1cccs1 (stereo not shown) [GSK1055950A]	1.85 µM

same assay, conditions: THP1 / Mtb H37Rv infection assay; ref Sorrentino et al, 2015; cited from earlier work

SMILES	Intracelullar MIC90 in THP-1
O=C(NC(Cc1ccccc1)C(=O)Nc1ccccc1N1CCOCC1)c1cccs1 (stereo not shown) [GSK1055950A]	1.85 µM
Cc1nnc(NCc2cccc(Cl)c2)c2ccccc12 [GSK1302651A]	5.55 µM
Cc1ccc(C(=O)Nc2nc(-c3ccccn3)cs2)s1 [GSK1372568A]	50 µM
CCn1c(=O)c(=O)[nH]c2cc(C(=O)Nc3ccccc3Nc3ccc(OC)cc3)ccc21 [GSK1385423A]	0.61 µM
O=C(c1cc2c(s1)CCC2)N1CCN(Cc2ccc3c(c2)OCO3)CC1 [GSK1731114A]	5.55 µM
O=C(C=Cc1cccs1)N1CCN(Cc2ccc(Br)s2)CC1 [GSK1744926A]	1.85 µM
CN1CCN(c2ccc(C(F)(F)F)cc2NC(=O)c2ccccn2)CC1 [GSK1750922A]	50 µM

same assay, conditions: ratio; ref Sorrentino et al, 2015; cited from earlier work

SMILES	Extracellular MIC90/ Inracellular MIC90
O=C(NC(Cc1ccccc1)C(=O)Nc1ccccc1N1CCOCC1)c1cccs1 (stereo not shown) [GSK1055950A]	4.11
Cc1nnc(NCc2cccc(Cl)c2)c2ccccc12 [GSK1302651A]	1.06
Cc1ccc(C(=O)Nc2nc(-c3ccccn3)cs2)s1 [GSK1372568A]	0.17
CCn1c(=O)c(=O)[nH]c2cc(C(=O)Nc3ccccc3Nc3ccc(OC)cc3)ccc21 [GSK1385423A]	13.77
O=C(c1cc2c(s1)CCC2)N1CCN(Cc2ccc3c(c2)OCO3)CC1 [GSK1731114A]	0.95
O=C(C=Cc1cccs1)N1CCN(Cc2ccc(Br)s2)CC1 [GSK1744926A]	1.03
CN1CCN(c2ccc(C(F)(F)F)cc2NC(=O)c2ccccn2)CC1 [GSK1750922A]	0.04

tested on: M. marinum luxCDABE; assay type: cell-based, Mycobacterium marinum; details: 10 µM

SMILES	M. marinum luxCDABE normalised growth, control = 1.00, mean	M. marinum luxCDABE normalised growth, control=1.00, mean
O=C(NC(Cc1ccccc1)C(=O)Nc1ccccc1N1CCOCC1)c1cccs1 (stereo not shown) [GSK1055950A]	0,00	0.00
Cc1nnc(NCc2cccc(Cl)c2)c2ccccc12 [GSK1302651A]	–	0.00
Cc1ccc(C(=O)Nc2nc(-c3ccccn3)cs2)s1 [GSK1372568A]	–	0.00
CCn1c(=O)c(=O)[nH]c2cc(C(=O)Nc3ccccc3Nc3ccc(OC)cc3)ccc21 [GSK1385423A]	–	1.00
O=C(c1cc2c(s1)CCC2)N1CCN(Cc2ccc3c(c2)OCO3)CC1 [GSK1731114A]	–	0.085
O=C(C=Cc1cccs1)N1CCN(Cc2ccc(Br)s2)CC1 [GSK1744926A]	–	0.00
CN1CCN(c2ccc(C(F)(F)F)cc2NC(=O)c2ccccn2)CC1 [GSK1750922A]	–	1.00

tested on: M. marinum in A. castellanii; assay type: cell-based, Mycobacterium marinum; details: 10 µM

SMILES	A. castellanii / M. marinum normalised growth, control=1.00, mean	Hits A. castellanii/M. marinum assay True/False	anti-infective properties in A. castellanii infection assay
O=C(NC(Cc1ccccc1)C(=O)Nc1ccccc1N1CCOCC1)c1cccs1 (stereo not shown) [GSK1055950A]	0.24	TRUE	strong anti-infective properties
Cc1nnc(NCc2cccc(Cl)c2)c2ccccc12 [GSK1302651A]	1.01	–	–
Cc1ccc(C(=O)Nc2nc(-c3ccccn3)cs2)s1 [GSK1372568A]	1.35	–	–
CCn1c(=O)c(=O)[nH]c2cc(C(=O)Nc3ccccc3Nc3ccc(OC)cc3)ccc21 [GSK1385423A]	1.07	–	–
O=C(c1cc2c(s1)CCC2)N1CCN(Cc2ccc3c(c2)OCO3)CC1 [GSK1731114A]	0.92	–	–
O=C(C=Cc1cccs1)N1CCN(Cc2ccc(Br)s2)CC1 [GSK1744926A]	0.74	–	–
CN1CCN(c2ccc(C(F)(F)F)cc2NC(=O)c2ccccn2)CC1 [GSK1750922A]	0.93	–	–

tested on: Mtb H37Rv; set-up: method as in Sorrentino et al, 2015; details: ref Sorrentino et al, 2015; cited from earlier work

SMILES	Extracellular MIC90
O=C(NC(Cc1ccccc1)C(=O)Nc1ccccc1N1CCOCC1)c1cccs1 (stereo not shown) [GSK1055950A]	7.6 µM
Cc1nnc(NCc2cccc(Cl)c2)c2ccccc12 [GSK1302651A]	5.9 µM
Cc1ccc(C(=O)Nc2nc(-c3ccccn3)cs2)s1 [GSK1372568A]	8.4 µM
CCn1c(=O)c(=O)[nH]c2cc(C(=O)Nc3ccccc3Nc3ccc(OC)cc3)ccc21 [GSK1385423A]	8.4 µM
O=C(c1cc2c(s1)CCC2)N1CCN(Cc2ccc3c(c2)OCO3)CC1 [GSK1731114A]	5.3 µM
O=C(C=Cc1cccs1)N1CCN(Cc2ccc(Br)s2)CC1 [GSK1744926A]	1.9 µM
CN1CCN(c2ccc(C(F)(F)F)cc2NC(=O)c2ccccn2)CC1 [GSK1750922A]	1.9 µM

tested on: M. marinum in BV2 microglial cells; assay type: cell-based, Mycobacterium marinum; details: not given

SMILES	pIC50
O=C(NC(Cc1ccccc1)C(=O)Nc1ccccc1N1CCOCC1)c1cccs1 (stereo not shown) [GSK1055950A]	5.55
Cc1nnc(NCc2cccc(Cl)c2)c2ccccc12 [GSK1302651A]	5.36
Cc1ccc(C(=O)Nc2nc(-c3ccccn3)cs2)s1 [GSK1372568A]	5.27
CCn1c(=O)c(=O)[nH]c2cc(C(=O)Nc3ccccc3Nc3ccc(OC)cc3)ccc21 [GSK1385423A]	5.62
O=C(c1cc2c(s1)CCC2)N1CCN(Cc2ccc3c(c2)OCO3)CC1 [GSK1731114A]	5.03
O=C(C=Cc1cccs1)N1CCN(Cc2ccc(Br)s2)CC1 [GSK1744926A]	5.38
CN1CCN(c2ccc(C(F)(F)F)cc2NC(=O)c2ccccn2)CC1 [GSK1750922A]	5.29

same assay, conditions: 10 µM

SMILES	BV2 / M. marinum normalised growth, control=1.00, mean	anti-infective properties in microglial cell (BV2) infection assay	hit in BV2/M. marinum assay True/False
O=C(NC(Cc1ccccc1)C(=O)Nc1ccccc1N1CCOCC1)c1cccs1 (stereo not shown) [GSK1055950A]	0.33	strong anti-infective properties	TRUE
Cc1nnc(NCc2cccc(Cl)c2)c2ccccc12 [GSK1302651A]	0.87	–	–
Cc1ccc(C(=O)Nc2nc(-c3ccccn3)cs2)s1 [GSK1372568A]	0.95	–	–
CCn1c(=O)c(=O)[nH]c2cc(C(=O)Nc3ccccc3Nc3ccc(OC)cc3)ccc21 [GSK1385423A]	0.71	–	–
O=C(c1cc2c(s1)CCC2)N1CCN(Cc2ccc3c(c2)OCO3)CC1 [GSK1731114A]	0.81	–	–
O=C(C=Cc1cccs1)N1CCN(Cc2ccc(Br)s2)CC1 [GSK1744926A]	0.70	–	–
CN1CCN(c2ccc(C(F)(F)F)cc2NC(=O)c2ccccn2)CC1 [GSK1750922A]	0.94	–	–

tested on: D. discoideum GFP-ABD; details: 10 µM

SMILES	D. discoideum GFP-ABD normalised growth, control = 1.00, mean	D. discoideum GFP-ABD normalised growth, control=1.00, mean
O=C(NC(Cc1ccccc1)C(=O)Nc1ccccc1N1CCOCC1)c1cccs1 (stereo not shown) [GSK1055950A]	1,07	1.07
Cc1nnc(NCc2cccc(Cl)c2)c2ccccc12 [GSK1302651A]	–	0.97
Cc1ccc(C(=O)Nc2nc(-c3ccccn3)cs2)s1 [GSK1372568A]	–	0.31
CCn1c(=O)c(=O)[nH]c2cc(C(=O)Nc3ccccc3Nc3ccc(OC)cc3)ccc21 [GSK1385423A]	–	0.39
O=C(c1cc2c(s1)CCC2)N1CCN(Cc2ccc3c(c2)OCO3)CC1 [GSK1731114A]	–	0.44
O=C(C=Cc1cccs1)N1CCN(Cc2ccc(Br)s2)CC1 [GSK1744926A]	–	0.50
CN1CCN(c2ccc(C(F)(F)F)cc2NC(=O)c2ccccn2)CC1 [GSK1750922A]	–	0.29
